Measurements: patent US20260207760A1, “COMBINATIONS OF CD33 ANTIBODY DRUG CONJUGATE WITH CHEMOTHERAPEUTIC AGENTS” (Glykos Biomedical Oy, priority 2022, published 2026)
Values joined by “and” are separate entries in the source; they are usually repeats but may differ in a detail not shown here. Equal values may be shown once. Where a name gives a salt, the structure may show the parent alone. Read-outs that look alike come from different tables or passages of the source.

Columns and labels:
[1] = system: MOLM-13 cells; experiment: Toxicity assay of chemotherapeutic agents, MOLM-13 cells (PrestoBlue viability); format: cell-based, human; settings: 4 days
Experimental: For toxicity assay, MOLM-13 cells were seeded for 10 000 cells/well of 96-well plate. The tested chemotherapeutic agents were added as 2-fold stock solutions and incubated in duplicate with cells for 4 days. The compounds were tested at concentrations 0.1, 1, 10, 100, 1000, and 10 000 nM. […] After 4 days incubation, the viability of the cells was determined with PrestoBlue Cell Viability Reagent (Life Technologies) according to the manufacturer's instructions. The percentage of viable cells was calculated by dividing the sample absorbance value with untreated cell control value and multiplying by 100%.

[2] = system: patient lymphocytes; experiment: Ex vivo AML patient samples, viable lymphocytes by flow cytometry, 5-day assay; settings: CD33-negative lymphocytes in AML patient samples, five days
Experimental: (§1) AML cells were rapidly thawed in a 37° C. water bath and treated with Denarase (250 U/μl). The cells were cultured in SFEM II medium ([…] Technologies) supplemented with 20 ng/ml SCF, 20 ng/ml TPO, and 20 ng/ml FLT3-L. The compounds were added the same day to 96-well conical bottom plates at seven different concentrations using an acoustic liquid handling device (Echo 550, Labcyte Inc), on top of 10 μl of culturing medium/well. A total of 100,000 cells were seeded per well in a volume of 100 μl. […] All antibodies were obtained from BD biosciences and used at a dilution of 1:100, except CD3 in 1:50. Following a 20-minute incubation with the antibodies, the cells were centrifuged, and 25 μl of Annexin-V and 7-AAD mixture, both diluted 1:50 in Annexin V binding buffer, were added to each well. After a 10-minute incubation, the total number of viable blasts (CD34 or CD117), lymphocytes (CD3) and CD33-positive cells in each well was counted using Forecyte software (Sartorius) and normalized to DMSO control containing wells.
(§2) The AML samples were exposed to LNAuM, lintuzumab, MMAU, or gemtuzumab ozogamicin (GO; Mylotarg, Pfizer) for five days, after which remaining viable blast and lymphocytes were quantified using flow cytometry. […] Subsequently, we assessed toxicity against lymphocytes (CD33-negative) in the same samples.

[3] = system: patient blasts; experiment: Ex vivo AML patient samples, viable blasts by flow cytometry, 5-day assay; format: cell-based, human; settings: five days; for activity against blasts: AML patient samples; for IC50: six AML patient samples, read-out: median IC50 (absolute) against blasts
Experimental: as §1, §2

[4] = system: MOLM-13 cells; experiment: MOLM-13 cell mouse xenograft efficacy study; settings: for toxicity in mice: clinical signs, general behavior, macroscopic changes in major organs; for Average tumor size / Tumor size of individual mice / TGI (average tumor size compared to Vehicle): day 15 after tumor inoculation, combination of the two; for Average tumor size / Tumor size of individual mice: LNAuM 0.3 mg/kg single dose i.v., venetoclax 100 mg/kg p.o. daily; for TGI (average tumor size compared to Vehicle): LNAuM 0.3 mg/kg single dose
[5] = system: HL-60 cells; experiment: Toxicity assay of chemotherapeutic agents, HL-60 cells (PrestoBlue viability); format: cell-based, human
Experimental: HL-60 cells (ATCC®, cat. no. CCL-240™), derived from human promyelocytic leukemia, were cultured in Iscove's Modified Dulbecco's Medium (Gibco, Life Technologies) supplemented with 20% heat inactivated FBS (Gibco, Life Technologies).
For toxicity assay, HL-60 cells were seeded for 7500 cells/well of 96-well plate. The chemotherapeutic agents were added as 2-fold stock solutions and incubated with cells for 5 days.
All other compounds were tested at concentrations 0.1, 1, 10, 100, 1000, and 10 000 nM. […] The percentage of viable cells was calculated by dividing the sample absorbance value with untreated cell control value and multiplying by 100%.
All compounds were tested at concentrations of 0.1-10 000 nM.
IC50 values were determined after average % and standard deviations were transferred to GraphPad Prism 9.1.2. Dose-response curves were generated and the IC50% values of the samples were obtained by non-linear regression analysis (Inhibitor vs. response, variable slope (four parameters)) using the software.

[6] = system: KG-1 cells; experiment: Toxicity of chemotherapeutic agents, KG-1 cells (PrestoBlue viability); format: cell-based; settings: 4 days
Experimental: Toxicity of chemotherapeutic agents was tested with high CD33-positive KG-1 cell line (DSMZ-German Collection of Microorganisms and Cell Cultures; Cat. No. ACC 14). KG-1 cells were seeded to non-treated 96-well plate 15000 cells/well and diluted compounds were added to cells in duplicates. Dilution series (1:10) of compounds were prepared starting from 20 μM to 0.2 nM and when added to cells they diluted 2× more. Cell control was untreated cells in culture medium.
Cells with chemotherapeutic agents were cultured for 4 days and then the viability was measured with PrestoBlue cell viability reagent according to the manufacturer's (Life Technologies) instructions. Results were calculated from 5-hour Prestoblue reaction and the percentage of viable cells was calculated by dividing the sample absorbance value with cell control value.

[7] = Homo sapiens, 120 h, HL-60 cells, 5 days incubation, read-out: IC50

CO[C@@H]1[C@H](N(C)C(=O)c2ccccc2)C[C@H]2O[C@]1(C)n1c3ccccc3c3c4c(c5c6ccccc6n2c5c31)C(=O)NC4 [Midostaurin]
IC50 ([1]; Homo sapiens, 96 h): 14 nM

lintuzumab: anti-CD33 antibody comprising the light chain of SEQ ID NO:1 and the heavy chain of SEQ ID NO:2
cytotoxic activity against lymphocytes [2]: did not exhibit cytotoxic activity | activity against blasts [3]: modest or no activity | tumor growth inhibition ([4]; lintuzumab naked antibody 10 mg/kg single dose, non-binding IgG1 ADC control 3 mg/kg single dose): only modest tumor growth inhibition

Gilteritinib hemifumarate
IC50 ([5]; read-out: IC50): 425 nM | IC50 [6]: 1700 nM | IC50 [1]: 24 nM

gemtuzumab ozogamicin [GO]
cytotoxic activity against lymphocytes [2]: significant lymphocyte toxicity | IC50 ([2]; read-out: median IC50 against lymphocytes): 9 nM | IC50 [3]: 0.3 nM

CCC(C)C(C(CC(=O)N1CCCC1C(OC)C(C)C(=O)NC(C)C(OC1OC(C(=O)O)C(O)C(O)C1O)c1ccccc1)OC)N(C)C(=O)C(NC(=O)C(NC)C(C)C)C(C)C [MMAU, monomethylauristatin E β-D-glucuronide]
cytotoxic activity against lymphocytes [2]: did not exhibit cytotoxic activity | activity against blasts [3]: modest or no activity

Nc1ccn([C@@H]2O[C@H](CO)[C@@H](O)[C@@H]2O)c(=O)n1 [Cytarabine]
IC50 [5, 7]: 298 nM | IC50 ([6]; Homo sapiens, 96 h): 230 nM | IC50 ([1]; Homo sapiens, 96 h): 112 nM

CC1(C)CCC(CN2CCN(c3ccc(C(=O)NS(=O)(=O)c4ccc(NCC5CCOCC5)c([N+](=O)[O-])c4)c(Oc4cnc5[nH]ccc5c4)c3)CC2)=C(c2ccc(Cl)cc2)C1 [Venetoclax]
IC50 [5, 7]: 112 nM | IC50 ([6]; Homo sapiens, 96 h): 2300 nM | IC50 ([1]; Homo sapiens, 96 h): 24 nM | toxicity in mice [4]: no toxicity | Average tumor size [4]: 194 mm^3 | Tumor size of individual mice [4]: 134.946 mm^3 and 184.96 mm^3 and 249.64 mm^3 and 246.895 mm^3 and 122.793 mm^3 and 226.1475 mm^3 | TGI (average tumor size compared to Vehicle) ([4]; venetoclax 100 mg/kg): 0.45

COc1cccc2c1C(=O)c1c(O)c3c(c(O)c1C2=O)C[C@@](O)(C(C)=O)C[C@@H]3O[C@H]1C[C@H](N)[C@H](O)[C@H](C)O1 [Daunorubicin-HCl]
IC50 ([5]; Homo sapiens, HL-60, 120 h): 15 nM | IC50 ([6]; Homo sapiens, 96 h): 55 nM | IC50 ([1]; Homo sapiens, 96 h): 13 nM

LNAuM: antibody-drug-conjugate (ADC) comprising the lintuzumab antibody, conjugated to MMAU, via a cleavable linker
cytotoxic activity against lymphocytes [2]: did not exhibit cytotoxic activity | IC50 [3]: 16 nM | tumors disappeared and did not regrow during the whole study ([4]; LNAuM single dose of 3 mg/kg): 6/6 | tumor growth versus control group ([4]; all doses (LNAuM 0.1-3 mg/kg single dose; venetoclax 100 mg/kg, 10 daily doses)): inhibited tumor growth | toxicity in mice [4]: no toxicity | Average tumor size [4]: 201 mm^3 | Tumor size of individual mice [4]: 204.723 mm^3 and 229.992 mm^3 and 239.704 mm^3 and 153.6 mm^3 and 106.624 mm^3 and 271.472 mm^3 | TGI (average tumor size compared to Vehicle) ([4]; venetoclax 100 mg/kg): 0.46 | outcome at study end ([4]; day 54 after tumor inoculation, venetoclax 100 mg/kg, LNAuM 1 mg/kg, combination): two animals were sacrificed due to tumor growth, and in the rest of the animals there was a palpable tumor
